Literature values as cited in publication PMC6241861 (International Journal of Nanomedicine, 2018).

What was measured:
[1] = target: T1, human neutrophil elastase (Homo sapiens, UniProt P08246)
T1 sequence (P08246 30-267): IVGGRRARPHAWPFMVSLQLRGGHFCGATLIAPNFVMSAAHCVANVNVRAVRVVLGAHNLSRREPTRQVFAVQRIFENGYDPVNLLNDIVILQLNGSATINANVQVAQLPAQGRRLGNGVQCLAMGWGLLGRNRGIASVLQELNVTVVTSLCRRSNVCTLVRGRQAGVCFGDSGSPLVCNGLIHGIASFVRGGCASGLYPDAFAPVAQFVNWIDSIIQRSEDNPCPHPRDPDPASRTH

[2] = target: Pseudomonas aeruginosa elastase (Pseudomonas aeruginosa, UniProt P14756)
Sequence of Pseudomonas aeruginosa elastase (P14756 198-498): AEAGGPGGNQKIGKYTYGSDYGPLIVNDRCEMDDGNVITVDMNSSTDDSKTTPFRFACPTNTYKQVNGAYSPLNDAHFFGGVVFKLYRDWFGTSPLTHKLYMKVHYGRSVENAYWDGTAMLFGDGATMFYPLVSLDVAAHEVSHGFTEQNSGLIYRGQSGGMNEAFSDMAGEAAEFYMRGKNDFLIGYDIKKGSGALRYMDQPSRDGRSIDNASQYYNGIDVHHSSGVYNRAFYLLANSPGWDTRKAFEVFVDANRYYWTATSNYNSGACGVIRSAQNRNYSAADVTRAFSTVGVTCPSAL

LL37
Degradation by leukocyte elastase [HNE] [1]: degraded | Degradation by P. aeruginosa elastase [PE] [2]: degraded
